One data set deals with wild-type mouse brain. The experiment in a line: PET imaging with [18F]7b in wild-type mouse. To be noted: wild-type mouse lacking DREADD expression.
Data set [1] deals with T1, hM3Dq (Homo sapiens, UniProt P20309, A239G/Y149C). As to the kind of experiment: PET imaging with [18F]7b in transgenic mice expressing hM3Dq. Type of data set: in vivo, mouse.
The target of data set [2] is T1, hM3Dq. The experiment in a line: [3H]CLZ competition binding, membranes of HEK293 cells transfected with hM3Dq.
Data set [3] has as its target T2, hM4Di (Homo sapiens, UniProt P08173, A203G/Y113C).
T2 sequence (P08173 1-479 Y113C/A203G): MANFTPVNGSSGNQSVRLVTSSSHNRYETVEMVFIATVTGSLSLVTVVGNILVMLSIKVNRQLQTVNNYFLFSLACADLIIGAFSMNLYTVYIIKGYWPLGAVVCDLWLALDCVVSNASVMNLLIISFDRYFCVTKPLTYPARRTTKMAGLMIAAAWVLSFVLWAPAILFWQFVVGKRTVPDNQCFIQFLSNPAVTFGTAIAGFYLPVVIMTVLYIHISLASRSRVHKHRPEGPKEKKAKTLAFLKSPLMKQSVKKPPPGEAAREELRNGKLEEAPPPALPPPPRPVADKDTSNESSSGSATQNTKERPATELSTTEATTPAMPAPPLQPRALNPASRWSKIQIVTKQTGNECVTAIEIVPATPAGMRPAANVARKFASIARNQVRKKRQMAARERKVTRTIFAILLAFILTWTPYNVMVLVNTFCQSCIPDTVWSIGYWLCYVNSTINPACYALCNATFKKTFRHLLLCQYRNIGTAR
The experiment in a line: [3H]CLZ competition binding, membranes of HEK293 cells transfected with hM4Di.

The target of data set [4] is T1, hM3Dq. To be noted: read-out: Ki, nM hM3Dq; printed without SD; cited from earlier work.
Data set [5] addresses T2, hM4Di. The note with it: read-out: Ki, nM hM4Di; printed without SD; cited from earlier work.
The target in data set [6] is T1, hM3Dq. To be noted: hM3Dq Tg mice; cited from earlier work.
The target in data set [7] is T1, hM3Dq. To be noted: read-out: hM3Dq EC50; DREADD agonist; cited from earlier work.
The next data set concerns hM3. To be noted: read-out: hM3 EC50; selectivity versus native hM3; cited from earlier work.
[8] abbreviates: at 50–60 min after injection, transgenic hM3Dq mice.
Setting [9] is: baseline, cerebellum as reference tissue.

Read-outs that look alike come from different tables or passages of the source.

T1 sequence (P20309 whole entry Y149C/A239G): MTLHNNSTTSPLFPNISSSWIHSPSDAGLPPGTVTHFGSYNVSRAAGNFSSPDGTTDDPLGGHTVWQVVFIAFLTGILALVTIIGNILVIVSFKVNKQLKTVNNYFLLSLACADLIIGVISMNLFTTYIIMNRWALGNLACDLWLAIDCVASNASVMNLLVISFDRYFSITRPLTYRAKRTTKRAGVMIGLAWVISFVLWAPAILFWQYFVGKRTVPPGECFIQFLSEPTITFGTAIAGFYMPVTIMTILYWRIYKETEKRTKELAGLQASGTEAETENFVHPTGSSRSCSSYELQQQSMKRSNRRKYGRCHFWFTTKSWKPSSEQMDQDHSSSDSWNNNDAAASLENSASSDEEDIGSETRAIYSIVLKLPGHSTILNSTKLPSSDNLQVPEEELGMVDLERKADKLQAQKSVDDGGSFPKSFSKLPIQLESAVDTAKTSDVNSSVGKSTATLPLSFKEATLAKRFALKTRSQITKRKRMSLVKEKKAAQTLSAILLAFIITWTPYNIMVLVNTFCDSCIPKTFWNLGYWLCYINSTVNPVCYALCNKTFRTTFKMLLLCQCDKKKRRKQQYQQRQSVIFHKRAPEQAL

For the compound `CCN1CCN(C2=Nc3ccccc3Nc3ccc([18F])cc32)CC1` [[^18F]7b, 11-(4-Ethylpiperazin-1-yl)-2-[^18F]fluoro-5H-dibenzo[b,e][1,4]diazepine], the “accumulation of radioactivity in the brain” value with wild-type mouse brain is on record as “low accumulation of radioactivity in the brain”. In addition, on hM3Dq [1] (setting [8]), the “maximum ratio of tissue to cerebellum, cortex” value came out at 1.8 and the “maximum ratio of tissue to cerebellum, striatum” value is 3.0. In addition, on hM3Dq [1] (setting [9]), the “binding potential BPND, cortex” value was 0.6 and the “binding potential BPND, striatum” value worked out at 1.6. Moreover, the “highest accumulation of radioactivity in the striatum (SUV)” value at hM3Dq [1] (baseline, striatum, mean ± SD of 3, transgenic hM3Dq mice) is on record as 1.93 ± 0.33 SUV.

Usually Ki stands for a dissociation constant, usually derived from enzyme kinetics or from competition with a known ligand. Regarding `CCN1CCN(C2=Nc3cc(Cl)ccc3Nc3c(F)cc(F)cc32)CC1` [Compound 7h, 8-Chloro-11-(4-ethylpiperazin-1-yl)-2,4-difluoro-5H-dibenzo[b,e][1,4]diazepine], the figures for the Ki at hM3Dq [2] and on hM4Di [3] were 8.1 ± 0.9 nM and 18.1 ± 5.4 nM, respectively.

As for `CN1CCN(C2=Nc3ccccc3Nc3ccccc32)CC1` [DCZ, deschloroclozapine], the Ki was 6.3 nM on hM3Dq [4] and 4.2 nM on hM4Di [5].

As to `[11CH3]N1CCN(C2=Nc3ccccc3Nc3ccccc32)CC1` [[^11C]DCZ, [^11C]deschloroclozapine], the STR/CB ratio value on hM3Dq [6] is given as 2.7.

What is called EC50 is the concentration needed to bring the measured effect to its halfway point. Turning to `CCN1CCN(C2=Nc3cc(Cl)ccc3Nc3ccccc32)CC1` [Compound 1, 8-chloro-11-(4-ethylpiperazin-1-yl)-5H-dibenzo[b,e][1,4]diazepine], the EC50 on hM3Dq [7] is 1.3 nM; in the data set with hM3, above 30000 nM.

As to `CCN1CCN(C2=Nc3cc(Cl)ccc3Nc3c(F)cccc32)CC1` [Compound 7d, 8-Chloro-11-(4-ethylpiperazin-1-yl)-4-fluoro-5H-dibenzo[b,e][1,4]diazepine], the “blocking effect on [18F]7b in the cerebellum” value at hM3Dq [1] (7d as blocker, dose escalation) is recorded as “insignificant”. The “blocking of [18F]7b binding potential in the cortex versus baseline” value on hM3Dq [1] (7d as blocker, dose escalation up to 0.5 mg/kg) is “significant only at the highest dose of blocker”.
